Assay: Solubility of the liquefied gas in water
Format: physicochemical
Settings: at 20° C.
Procedure: In the present invention, the liquefied gas to be blended is characterized by being a poorly water-soluble liquefied gas having solubility in water at 20° C. of less than 10 wt %, preferably less than 5 wt %. When the solubility of the liquefied gas in water is more than 10 wt %, the liquefied gas is hardly emulsified with the concentrate and emulsification stability is apt to be lowered, and therefore, a uniform composition tends to be hardly sprayed. In addition, in the case of blending a gas mixture as the liquefied gas, it is enough for the gas mixture to have properties corresponding to those of a poorly water-soluble liquefied gas.

| SMILES | solubility in water |
| --- | --- |
| COC [dimethyl ether (*17), dimethyl ether] | 33 wt % |
| F/C=C/C(F)(F)F [trans-1,3,3,3-tetrafluoroprop-1-ene] | ≤ 1 wt % |

— patent US20130164226A1, “FOAMABLE AEROSOL COMPOSITION” (DAIZO CORPORATION, priority 2010, published 2013)
